# Test results published in patent publication US9012439B2, “Use of electrophilic compounds for inducing platelet production or maintaining platelet function” (University of Rochester, priority 2007, dated 2015).
# Assays:
# Meg-01 cells = assay: Meg-01 morphology (phalloidin f-actin staining, transmission electron microscopy); assay type: cell-based, human; conditions: 10 μM
# Method: Cells were fixed and permeabilized with 0.1% triton-100 for 1 h at room temperature (RT). Subsequently, cells were blocked with 1% bovin serum albumin (BSA) in PBS-Tween 20 (0.1%) for 1 h at RT then stained with phalloidin-Alexa Fluor 488 (Invitrogen, 1:200) at RT for 2 h. Cells were mounted and visualized using an Olympus BX51 light microscope (Olympus, Melville, N.Y.).
# Cells were fixed for 4 h in 2.5% glutaraldehyde in 0.1 M sodium cacodylate buffer. Post-fixation cells were placed in 1% osmium tetroxide in phosphate buffer, dehydrated in ethanol, embedded in EPON/Araldite epoxy resin and analyzed on a Hitachi H-7100 electron microscope.
# Meg-01-derived platelets = assay: Collagen-induced shape change of Meg-01-derived platelets; assay type: cell-based, human; conditions: platelets from Meg-01 cells treated 10 μM for 24 h; collagen 10 μg/mL, 15 min
# Method: (§1) Platelets were isolated from the Meg-01 cells and human blood as described above. Both normal human platelets and Meg-01-derived platelets were stained with annexin V-FITC then treated with 10 μg/ml of collagen for 15 min. Cells were analyzed for collagen-induced annexin V binding and change in size and shape by flow cytometry. Platelets were isolated from primary human megakaryocytes and primary mouse megakaryocytes as described above. Primary human platelets were stained with CD41-FITC and primary mouse platelets were stained with CD61-PE then treated with 10 μg/mL of collagen. Cells were analyzed for collagen-induced CD61/CD41 upregulation and change in size and shape using flow cytometry.
# PPARγ = molecular target: T1, PPARγ (Homo sapiens, UniProt P37231); assay: PPARγ gene reporter analysis (PPRE-luciferase) in Meg-01 cells; assay type: cell-based; conditions: 10 μM, 24 h after ligand treatment
# T1 construct: Meg-01 cells were plated at a density of […] cells per well in a E-well plate and transfected; endogenous in cells; host or cells: Meg-01 cells
# T1 sequence (P37231 1-505): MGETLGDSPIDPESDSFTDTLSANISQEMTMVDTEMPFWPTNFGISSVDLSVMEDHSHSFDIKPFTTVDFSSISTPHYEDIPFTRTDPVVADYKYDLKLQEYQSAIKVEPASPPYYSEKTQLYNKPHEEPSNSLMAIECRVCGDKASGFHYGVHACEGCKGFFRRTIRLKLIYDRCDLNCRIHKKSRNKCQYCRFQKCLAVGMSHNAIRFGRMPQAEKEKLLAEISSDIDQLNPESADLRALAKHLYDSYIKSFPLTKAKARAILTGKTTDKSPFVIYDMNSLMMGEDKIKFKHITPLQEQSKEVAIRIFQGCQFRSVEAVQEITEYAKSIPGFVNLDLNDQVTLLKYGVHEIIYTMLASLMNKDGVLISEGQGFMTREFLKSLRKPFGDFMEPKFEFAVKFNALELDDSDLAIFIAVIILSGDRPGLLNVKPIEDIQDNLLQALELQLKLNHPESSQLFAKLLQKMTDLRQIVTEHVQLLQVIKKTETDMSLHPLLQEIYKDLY
# Method: Meg-01 cells were plated at a density of […] cells per well in a […] and transfected, using lipofectamine LTX (Invitrogen), with a PPRE (Peroxisome Proliferator Response Element)-luciferase reporter plasmid containing three copies of the ACO-PPRE (a gift from Dr. B. Seed, Massachusetts General Hospital, Boston, Mass.). […] Transfection efficiency was determined by transfecting the cells with green fluorescent protein (GFP) plasmid and determining the percentage of cells that were GFP+ by flow cytometry. […] Luciferase activity was assessed 24 h after ligand treatment using the Promega Luciferase Assay System, and relative light units (RLU) were determined using a Lumicount Microplate Luminometer (Packard Instrument Co., Meriden, Conn.).
# [1] = tested on: primary mouse megakaryocytes; assay: Platelet production from cultured mouse bone marrow megakaryocytes; assay type: cell-based, mouse (C57BL/6)
# Method: Bone marrow was isolated from the femora of male C57BL/6 mice (Jackson Laboratories, Bar Harbor, Me.) and plated at a concentration of 1×10^6 cells per well in 12-well plates in IMDM (Iscove's Modified Dulbecco's Media, Invitrogen) with 20% BIT 9500 (BSA, insulin, transferrin) and supplemented with 100 ng/mL of rhTPO. Cells were cultured for 5 days, following which 15d-PGJ2 (10 μM) was added to the culture medium for 24 h. On the sixth day, cells were examined by phase-contrast microscopy using an inverted microscope (Olympus IX81) and images were captured using SPOT RT software (New Hyde Park, N.Y.). Megakaryocytes were identified by preincubating with anti-mouse CD16/32 (FcγR-blocking antibody) and then incubating with PE-conjugated hamster anti-mouse CD41 antibody.
# Platelets were isolated from megakaryocytes by centrifugation at 150 xg for 10 min. Supernatants underwent sequential centrifugation (500 xg for 10 min and 1000×g for 10 min). The remaining platelet pellet was fixed then permeabilized with a CD61 or CD41 antibody. 7-AAD (BD Pharmingen) was added for 10 min before analyzing the cells by flow cytometry. […]
# [2] = tested on: human culture-derived platelets; assay: Function of human culture-derived platelets (collagen response, spreading on fibrinogen); assay type: cell-based
# Method: as §1
# Coverslips were coated with 100 μg/mL of fibrinogen for 1 h and blocked with 0.5 mg/mL BSA for 1 h. Platelets were added to the fibrinogen-coated coverslips in Tyrode's buffer and fixed with glutaraldehyde, post-fixed with 1% osmium tetroxide, and dehydrated. Platelets were then coated with a gold/palladium film. Images were acquired using the Zeiss-Leo 982 FE-SEM (scanning electron microscope).
compound,measurement,setting,value
"CCCCCC=CC=C1C(=O)C=C[C@@H]1CC=CCCCC(=O)O [15d-PGJ2, 15-deoxy-Δ^12,14 prostaglandin J2]",morphological changes by f-actin (phalloidin) staining,Meg-01 cells; within 1-2 h,"Morphological changes, characteristic of megakaryopoiesis"
same,structural characteristics by transmission electron microscopy,Meg-01 cells; within 24 h,structural characteristics consistent with differentiating cells
same,platelets that decreased their size and increased their granularity in response to collagen,Meg-01-derived platelets,68%
same,PPARγ activation (PPRE-luciferase activity),PPARγ,activated PPARγ
same,increase in percentage of CD61+ platelets in culture,"[1]; mouse bone marrow cultured 5 days with rhTPO, then 10 μM for 24 h",~14%
same,megakaryocyte surface morphology,"[1]; mouse megakaryocytes, 10 μM, 24 h, microscopy",induced the appearance of ruffled edges on the megakaryocytes
same,platelet spreading on fibrinogen,"[2]; human culture-derived platelets, fibrinogen coated slide",spread in response to fibrinogen
same,"geometric mean fluorescence intensity of surface CD61, after collagen treatment","[2]; platelets from CD61+ cell cultures treated with 15d-PGJ2, collagen 10 μg/mL, 15 min",20
same,"geometric mean fluorescence intensity of surface CD61, before collagen","[2]; platelets from CD61+ cell cultures treated with 15d-PGJ2, no collagen",5
